Results: US8481077B2, “Microbubbles and methods for oxygen delivery” (The Trustees of Columbia University in the City of New York, priority 2007, dated 2013)

Columns and labels:
[1] = Main phase transition temperature (Tm) and reduced temperature (TR) of microbubble lipids; format: physicochemical; conditions: reduced temperature T/Tm in Kelvin
Procedure: As used herein, the “phase transition temperature” (Tm) refers to the temperature at which lipid assemblies transition from a solid (crystalline) phase to a fluid (liquid crystalline) phase. For example, 1,2-Dipentadecanolyl-sn-Glycero-3-Phosphoeholine (C15) has a Tm of 33° C. Thus this lipid is in the solid phase at room temperature and transitions to the fluid phase when it is injected into the body.
Shell cohesion, as a function of acyl chain length, may be represented by the reduced temperature (TR), which is equal to the ratio of the ambient temperature (or “working temperature”) (T) to the main phase transition temperature (Tm) of the lipid (in Kelvin). For TR>1, the shell is in an expanded (fluid) state at the working temperature. For TR<1, the shell is in a condensed (solid) state at the working temperature. See Table 2 for a list of lipids with their corresponding main phase transition temperatures (Tm) and reduced temperatures (TR).

[2] = main phase transition temperature, solid to fluid phase; cited from earlier work
[3] = test system: desaturated, venous whole blood; conditions: 0.2 mL added to 2 mL blood, one inversion
Procedure: In one test tube, 0.2 mL of the microbubbles were added to 2 mL of desaturated, venous whole blood.
The test tubes were inverted once, and co-oximetry and blood gas values measurements were taken using a Radiometer ABL800 X blood gas machine.

TR at 25° C. [1] | TR at 37° C. [1] | Structure (SMILES) | Tm (° C.) [2] [°C] | PCO2 [3] [mmHg] | PO2 [3] [mmHG] | oxygenated hemoglobin (oxyHb) [3] [%] | pH [3]
1.01 | 1.05 | CCCCCCCCCCCCCC(=O)OC[C@H](COP(=O)([O-])OCC[N+](C)(C)C)OC(=O)CCCCCCCCCCCCC [C14, 1,2-Dimyristoyl-sn-Glycero-3-Phosphocholine] | 23 | – | – | – | –
0.97 | 1.01 | CCCCCCCCCCCCCCC(=O)OC[C@H](COP(=O)([O-])OCC[N+](C)(C)C)OC(=O)CCCCCCCCCCCCCC [C15, 1,2-Dipentadecanoyl-sn-Glycero-3-Phosphocholine] | 33 | – | – | – | –
0.95 | 0.99 | CCCCCCCCCCCCCCCC(=O)OC[C@H](COP(=O)([O-])OCC[N+](C)(C)C)OC(=O)CCCCCCCCCCCCCCC [C16, 1,2-Dipalmitoyl-sn-Glycero-3-Phosphocholine] | 41 | – | – | – | –
0.91 | 0.95 | CCCCCCCCCCCCCCCCCC(=O)OC[C@H](COP(=O)(O)OCCN)OC(=O)CCCCCCCCCCCCCCCCC [C18, 1,2-Distearoyl-sn-Glycero-3-Phosphoethanolamine] | 55 | – | – | – | –
– | – | O=O [unencapsulated oxygen, oxygen] | – | 59 | 33 | 59 | 7.33

Structure (SMILES) | TR at 25° C. [1] | TR at 37° C. [1] | Tm (° C.) [2] [°C] | PCO2 [3] [mmHg] | PO2 [3] [mmHG] | oxygenated hemoglobin (oxyHb) [3] [%] | pH [3]
CCCCCCCCCCCC(=O)OC[C@H](COP(=O)([O-])OCC[N+](C)(C)C)OC(=O)CCCCCCCCCCC [C12, 1,2-Dilauroyl-sn-Glycero-3-Phosphocholine] | 1.10 | 1.14 | −1 | – | – | – | –
